This passage reports Activity and inhibition results from ChEMBL document CHEMBL5029152, “Discovery of Highly Potent and Selective IRAK1 Degraders to Probe Scaffolding Functions of IRAK1 in ABC DLBCL” (J Med Chem, 2021).

Each structure is given as a SMILES string. Active and inactive are the calls of the source. No cut-off for these calls is given here.

Test [1] concerns the target T1, Interleukin-1 receptor-associated kinase 1 (Homo sapiens, UniProt P51617). The experiment in a line: Induction of IRAK1 degradation in human Toledo cells assessed as decrease in protein abundance at 1 uM measured after 6 hrs by quantitative mass spectrometry. It counts as cell-based.
The target in test [2] is T1, Interleukin-1 receptor-associated kinase 1. The experiment in a line: Inhibition of IRAK1 in human HBL1 cells assessed as reduction in phosphorylated IKBA level at up to 1 uM measured after 24 hrs by Western blot analysis. It counts as cell-based. Particulars: dose microM <=1, time 24.0 hrs.
Test [3] has the same target. The experiment in a line: Inhibition of IRAK1 in human HBL1 cells assessed as reduction in phosphorylated STAT3 level at up to 1 uM measured after 24 hrs by Western blot analysis. It counts as cell-based. The settings on record: dose microM <=1, time 24.0 hrs.
Test [4] shares this target. The experiment in a line: Inhibition of IRAK1 in human HBL1 cells assessed as reduction in total STAT3 level at up to 1 uM measured after 24 hrs by Western blot analysis. It counts as cell-based. The settings on record: dose microM <=1, time 24.0 hrs.
Another test has as its system HBL1. The experiment in a line: Induction of apoptosis in human HBL1 cells assessed as increase in PARP cleavage at up to 1 uM measured after 24 hrs by Western blot analysis. It counts as functional, cell-based. The settings on record: dose microM <=1, time 24.0 hrs.
Test [5] in a line: Cytotoxicity against human HBL1 cells assessed as reduction in cell viability measured after 12 days by CellTiter-Glo assay. The test is classed as functional. The settings on record: time 12 day.
Another test deals with OCI-Ly10. The experiment in a line: Cytotoxicity against human OCILY10 cells assessed as reduction in cell viability measured after 12 days by CellTiter-Glo assay. The test is classed as functional. Particulars: time 12 day.

T1 sequence (P51617 whole entry, looked up): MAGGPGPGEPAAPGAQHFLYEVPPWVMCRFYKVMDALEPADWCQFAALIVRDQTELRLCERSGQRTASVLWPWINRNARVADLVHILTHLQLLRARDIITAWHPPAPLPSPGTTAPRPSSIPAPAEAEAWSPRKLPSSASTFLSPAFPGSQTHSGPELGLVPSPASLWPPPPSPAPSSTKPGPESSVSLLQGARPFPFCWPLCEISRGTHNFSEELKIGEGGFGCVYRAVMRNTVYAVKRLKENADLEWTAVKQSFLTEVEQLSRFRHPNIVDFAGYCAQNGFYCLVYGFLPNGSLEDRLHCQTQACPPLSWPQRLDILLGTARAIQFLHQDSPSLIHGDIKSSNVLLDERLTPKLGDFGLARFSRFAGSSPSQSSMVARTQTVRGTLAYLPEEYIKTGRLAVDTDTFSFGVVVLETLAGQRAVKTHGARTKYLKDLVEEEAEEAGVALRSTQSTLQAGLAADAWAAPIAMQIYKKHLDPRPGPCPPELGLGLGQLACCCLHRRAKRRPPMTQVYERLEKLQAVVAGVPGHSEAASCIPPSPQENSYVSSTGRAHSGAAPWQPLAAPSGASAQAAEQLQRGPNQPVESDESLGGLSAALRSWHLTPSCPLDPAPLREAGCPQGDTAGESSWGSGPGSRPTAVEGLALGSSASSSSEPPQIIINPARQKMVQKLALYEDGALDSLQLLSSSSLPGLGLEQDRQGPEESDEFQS

In the case of `COc1cc(N2CCC(OCC(=O)N[C@H](C(=O)N3C[C@H](O)C[C@H]3C(=O)N[C@@H](C)c3ccc(-c4scnc4C)cc3)C(C)(C)C)CC2)ccc1NC(=O)c1cccc(-c2ccn[nH]2)n1`, the outcome (in test [1]; in the test with HBL1) was Active. For the same compound, the inhibition entry in test [2] and in test [3] was “Active” each time. In addition, in test [4], the inhibition result was “inactive”. The Activity in test [5] is on record as 60 nM; in the test with OCI-Ly10, 170 nM.
